Holding throughout (assay): growth of human tumour cells (NCI), 48 h
Test [1] deals with EKVX NSCLC.
Test [2] concerns HOP-92 NSCLC.
Test [3] has as its system HT29 colon.
Test [4] relates to IGROV1 ovarian.
Test [5] deals with KM12 colon.
Test [6] concerns M14 melanoma.
Test [7] deals with SF-295 CNS.
The subject of test [8] is SK-MEL-2 melanoma.
Test [9] has as its system SK-OV-3 ovarian.
Test [10] has as its system TK-10 renal.

SMILES strings stand for the structures.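 Compound exposure: 48 hours, 5 concentrations, 96-well plates. Here, GI50 denotes the concentration required for 50% inhibition of growth. TGI denotes the concentration required for complete inhibition of growth.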

Consider `C=C1CCC2C3(C)COC(C)(C)OC3CCC2(C)C1C/C=C1/C(=O)OCC1OC(C)=O` (centres undefined), for which the GI50 in test [1] is 9.5 µM; in test [2] it was 10.8 µM; in test [3], 1.89 µM; in test [4] it was 2.03 µM; in [5], 3.88 µM; in test [6] it was 1.77 µM. The GI50 in [7] is 11.5 µM; in test [8] it was 3.52 µM; in test [9], 12.5 µM; in [10], 5.24 µM. For the same compound, the TGI in test [1] amounted to 24.4 µM; in test [2] it was 24.2 µM; in test [3], 4.85 µM; in [4] it was 6.84 µM; in [5], 13.4 µM; in [6] it was 3.78 µM. The TGI was 25.9 µM in test [7], 15.6 µM in test [8], 25.7 µM in test [9] and 16.3 µM in test [10].
For the compound `COC(=O)c1sc(C(=O)OC)c2c1CS(=O)C2`, the TGI in test [1], in test [2], in [3], in test [4], in test [5] and in test [6] was greater than 100 µM throughout. For the same compound, the TGI in test [7], in test [8], in test [9] and in [10] was greater than 100 µM in each case.
For the compound `Cc1c2cnccc2c(C)c2c1c1cc(C#N)ccc1n2C`, the GI50 in test [1] is 0.219 µM; in [2], 0.18 µM; in test [3], 0.0871 µM; in [4], 0.14 µM; in [5] it was 0.243 µM; in test [6], 0.232 µM. In addition, the GI50 in test [7] was 0.201 µM; in test [8] it was 0.256 µM; in test [9], 0.245 µM; in test [10] it was 0.266 µM. The TGI is 0.624 µM in [1]; 0.708 µM in test [2]; 1.05 µM in [3]; 1.1 µM in test [4]; 1.98 µM in test [5]; 0.654 µM in test [6]. Further, the TGI in test [7] came to 0.859 µM; in [8], 0.771 µM; in test [9], 0.92 µM; in test [10] it was 1.62 µM.
As for `N#C[Se]Cc1cc(-c2ccccc2)n(-c2ccc(S(N)(=O)=O)cc2)n1`, the GI50 in [1] was 0.688 µM; in [2], 2.1 µM; in test [3], 1.46 µM; in test [4], 0.322 µM; in test [5], 0.881 µM; in test [6] it was 0.24 µM. Further, the GI50 in test [7] is 0.444 µM; in test [8] it was 2.32 µM; in test [9], 2.69 µM; in [10], 2.35 µM. The TGI in test [1] amounted to 12.6 µM; in test [2] it was 4.61 µM; in test [3], 3.36 µM; in test [4], 1.08 µM; in test [5], 3.22 µM; in test [6] it was 0.659 µM. For the same compound, the TGI worked out at 2.48 µM in test [7], 5.6 µM in [8], 5.26 µM in test [9] and 7.83 µM in [10].
For `CCOC(=O)NC(=O)c1cn(CCN2CCN(C(=O)NCCCCCCNC(=O)N3CCN(CCn4cc(C(=O)NC(=O)OCC)c(=O)[nH]c4=O)CC3)CC2)c(=O)[nH]c1=O`, the TGI in [1], in [2], in test [3], in [4], in test [5] and in test [6] was greater than 100 µM throughout. Further, the TGI in test [7], in test [8], in test [9] and in [10] was greater than 100 µM each time.
Turning to `C/C=C/C(C#N)O[Si](C)(C)C` (centres undefined), the TGI in [1], in [2], in test [3], in test [4], in test [5] and in test [6] was greater than 100 µM in each case. Also, the TGI in [7], in test [8], in test [9] and in test [10] was greater than 100 µM each time.
Consider `C=C(c1ccccc1)C1(O)CCCCC1N` (centres undefined), for which the TGI in test [1], in [2], in [3], in [4], in test [5] and in test [6] was greater than 100 µM in each case. Also, the TGI in test [7], in test [8], in test [9] and in [10] was greater than 100 µM in each case.
Turning to `COc1cc2c(c3c1c(=O)c1ccccc1n3C)C=CC1(CCCC1)O2`, the TGI is 26.4 µM in [1]; 31.7 µM in test [2]; 19.7 µM in [3]; 28.4 µM in test [4]; 25.3 µM in [5]; 29.1 µM in [6]. The TGI in [7] is 12.1 µM; in test [8] it was 33.6 µM; in test [9], 38.4 µM; in test [10] it was 33.7 µM.
In the case of `Cn1c(=O)c(N=Nc2c(=O)n(C)c(=O)n3c2[nH]c2ccccc23)c2[nH]c3ccccc3n2c1=O`, the TGI in test [1], in test [2], in [3], in test [4], in [5] and in [6] was greater than 100 µM throughout. The TGI in [7], in [8], in test [9] and in test [10] was greater than 100 µM each time.
Regarding `COc1ccc2nccc(C3=CCC4CCN(C(=O)c5ccccc5)C3C4)c2c1` (centres undefined), the TGI in [1], in test [2], in test [3], in test [4], in test [5] and in test [6] was greater than 100 µM in each case. Moreover, the TGI in test [7], in test [8], in test [9] and in test [10] was greater than 100 µM each time.
As to `Cn1c(=O)nc2n(-c3ccc(O)cc3)c3ccccc3nc-2c1=O`, the TGI in [1], in test [2], in test [3], in [4], in [5] and in test [6] was greater than 100 µM throughout. The TGI in test [7], in test [8], in test [9] and in test [10] was greater than 100 µM each time.
`Cc1c(/C=N/NC(=O)c2ccccc2O)c(=O)n(-c2ccccc2)n1C`: the TGI in [1], in test [2], in [3], in test [4], in test [5] and in test [6] was greater than 100 µM throughout. The TGI in [7], in test [8], in [9] and in test [10] was greater than 100 µM each time.
Turning to `Nc1ncn([C@@H]2S[C@H](CO)[C@@H](O)[C@@H]2F)c(=O)n1`, the GI50 in test [1] was 8.97 µM; in test [2], 0.623 µM; in test [3], 2.45 µM; in test [4], 3.43 µM; in test [5], 21.4 µM; in test [6] it was 0.377 µM. Moreover, the GI50 in [7] was 17.7 µM; in [8], greater than 100 µM; in test [9] it was 2.94 µM; in [10], greater than 100 µM. Besides, the TGI in [1] was greater than 100 µM; in test [2] it was greater than 100 µM; in [3] it was greater than 100 µM; in test [4], greater than 100 µM; in test [5], greater than 100 µM; in test [6], 30.1 µM. Besides, the TGI in [7], in test [8], in test [9] and in test [10] was greater than 100 µM in each case.
For the compound `N#CC(N)=Nc1ccccc1`, the TGI in test [1], in test [2], in [3], in test [4], in [5] and in test [6] was greater than 100 µM throughout. The TGI in [7], in test [8], in [9] and in [10] was greater than 100 µM throughout.
On to `Clc1ccc(-c2cn3ccnc3c(-c3ccc(Cl)cc3)n2)cc1`, for which the GI50 is 31.9 µM in test [1]; 15.1 µM in [2]; 12.5 µM in test [3]; 21 µM in test [4]; 5.33 µM in test [5]; 13.7 µM in [6]. Further, the GI50 is 11.1 µM in test [7], 61.9 µM in test [8], 82.8 µM in test [9] and 22.6 µM in test [10]. The TGI in [1] is greater than 100 µM; in [2], greater than 100 µM; in test [3], greater than 100 µM; in [4] it was greater than 100 µM; in [5], 37.9 µM; in test [6], 84.7 µM. The TGI in test [7] was 91.7 µM; in test [8], greater than 100 µM; in test [9], greater than 100 µM; in [10], 73.5 µM.
As to `CC(=O)OCc1c2ccccc2c(C)c2c1cc(F)c1ccccc12`, the TGI in test [1] was greater than 100 µM; in [2], greater than 100 µM; in test [3] it was 42.4 µM; in test [4], 75.2 µM; in test [5], greater than 100 µM; in test [6] it was greater than 100 µM. Also, the TGI in [7] is greater than 100 µM; in [8], 35.2 µM; in test [9], greater than 100 µM; in test [10], greater than 100 µM.
For `N#CC(C#N)=C/C=C(\Cl)c1ccc(Cl)cc1`, the GI50 was 23.8 µM in test [1]; 3.81 µM in [2]; 0.98 µM in [3]; 7.46 µM in test [4]; 15 µM in test [5]; 1.93 µM in test [6]. Further, the GI50 in test [7] is 9.73 µM; in test [8], 17.7 µM; in test [9] it was 9.96 µM; in test [10] it was 4.66 µM. Further, the TGI is 55.4 µM in test [1]; 11.4 µM in [2]; 32 µM in [4]; 44.1 µM in [5]; 7.38 µM in test [6]; 36.4 µM in [7]. The TGI is greater than 100 µM in [8], greater than 52.7 µM in test [9] and 19.2 µM in test [10].
For the compound `CC1=C([Se]CC(OC(=O)CC[Se]c2ccccc2)C(=O)NC(C)(C)C)C(=O)c2ccccc2C1=O` (centres undefined), the GI50 in [1] is 1.73 µM; in test [2], 1.55 µM; in test [3], 1.96 µM; in test [4] it was 1.53 µM; in [5], 1.59 µM; in [6], 1.67 µM. Moreover, the GI50 was 0.316 µM in test [7], 2 µM in test [8], 1.45 µM in test [9] and 1.99 µM in test [10]. Moreover, the TGI was found to be 3.8 µM in test [1]; 2.92 µM in test [2]; 3.64 µM in [3]; 2.94 µM in test [4]; 3.2 µM in test [5]; 3.21 µM in test [6]. Besides, the TGI was determined as 1.37 µM in test [7], 3.7 µM in test [8], 2.81 µM in test [9] and 3.62 µM in [10].
As to `O=C(c1ccc2ccccc2c1)c1c(C(F)(F)F)n([O-])c2ccc(C(F)(F)F)cc2[n+]1=O`, the GI50 in test [1] was 1.54 µM; in test [2], 0.899 µM; in test [3], 0.439 µM; in test [4], 0.27 µM; in [5] it was 0.961 µM; in test [6], 1.54 µM. Besides, the GI50 in test [7] was 1.29 µM; in test [8], 1.96 µM; in [9], 1.79 µM; in test [10], 1.67 µM. In addition, the TGI came to 3.2 µM in test [1]; 2.28 µM in test [2]; 1.43 µM in [3]; 0.815 µM in test [4]; 2.39 µM in test [5]; 2.95 µM in test [6]. Moreover, the TGI came out at 2.74 µM in [7], 3.77 µM in [8], 3.2 µM in test [9] and 3.07 µM in [10].
